# Target: recombinant human integrin αVβ6 (Homo sapiens (Human), UniProt P06756+P18564)
# Experiment: Solid phase integrin αVβ6 binding assay
# Conditions: inhibition of recombinant TGFβ1 LAP binding to coated integrin, IC50 presented in four ranges, read-out: αvβ6 Inhibition IC50 (nM) - range
# In short: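 Plates coated with recombinant human αVβ6 (2 μg/mL) and blocked; compounds competed with TGFβ1 LAP (0.67 μg/mL) in Mn2+ (0.5 mM)/BSA/sucrose TBS for 2 h at 25° C. Bound LAP detected by biotin anti-LAP and peroxidase-streptavidin; IC50 by four-parameter logistic fit.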
# Chain of recombinant human integrin αVβ6 (P06756 31-992): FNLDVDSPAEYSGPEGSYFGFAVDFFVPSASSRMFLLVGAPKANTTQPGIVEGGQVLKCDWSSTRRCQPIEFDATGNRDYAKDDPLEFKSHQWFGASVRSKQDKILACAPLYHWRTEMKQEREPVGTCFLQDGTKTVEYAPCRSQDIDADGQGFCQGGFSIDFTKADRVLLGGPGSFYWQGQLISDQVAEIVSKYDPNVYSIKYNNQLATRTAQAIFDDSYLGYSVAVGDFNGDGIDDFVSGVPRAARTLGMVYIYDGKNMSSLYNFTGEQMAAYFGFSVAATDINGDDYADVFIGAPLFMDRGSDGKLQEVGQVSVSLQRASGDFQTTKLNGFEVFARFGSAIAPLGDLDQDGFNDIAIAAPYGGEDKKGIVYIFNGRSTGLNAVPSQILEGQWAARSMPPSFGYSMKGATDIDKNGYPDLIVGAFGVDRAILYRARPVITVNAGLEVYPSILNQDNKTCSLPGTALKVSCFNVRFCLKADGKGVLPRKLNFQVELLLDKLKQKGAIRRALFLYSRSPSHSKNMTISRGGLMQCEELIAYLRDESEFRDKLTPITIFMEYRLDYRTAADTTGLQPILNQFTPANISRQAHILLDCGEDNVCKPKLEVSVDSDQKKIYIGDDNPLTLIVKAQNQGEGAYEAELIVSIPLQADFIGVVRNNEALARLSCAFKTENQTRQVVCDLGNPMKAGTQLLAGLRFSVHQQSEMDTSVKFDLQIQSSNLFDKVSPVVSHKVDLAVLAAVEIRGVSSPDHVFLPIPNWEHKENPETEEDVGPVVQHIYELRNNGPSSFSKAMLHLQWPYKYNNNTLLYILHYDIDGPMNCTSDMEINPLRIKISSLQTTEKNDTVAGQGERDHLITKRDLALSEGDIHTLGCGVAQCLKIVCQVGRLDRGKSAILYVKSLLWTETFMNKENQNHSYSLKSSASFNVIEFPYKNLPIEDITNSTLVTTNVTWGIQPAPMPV
# Chain of recombinant human integrin αVβ6 (P18564 22-707): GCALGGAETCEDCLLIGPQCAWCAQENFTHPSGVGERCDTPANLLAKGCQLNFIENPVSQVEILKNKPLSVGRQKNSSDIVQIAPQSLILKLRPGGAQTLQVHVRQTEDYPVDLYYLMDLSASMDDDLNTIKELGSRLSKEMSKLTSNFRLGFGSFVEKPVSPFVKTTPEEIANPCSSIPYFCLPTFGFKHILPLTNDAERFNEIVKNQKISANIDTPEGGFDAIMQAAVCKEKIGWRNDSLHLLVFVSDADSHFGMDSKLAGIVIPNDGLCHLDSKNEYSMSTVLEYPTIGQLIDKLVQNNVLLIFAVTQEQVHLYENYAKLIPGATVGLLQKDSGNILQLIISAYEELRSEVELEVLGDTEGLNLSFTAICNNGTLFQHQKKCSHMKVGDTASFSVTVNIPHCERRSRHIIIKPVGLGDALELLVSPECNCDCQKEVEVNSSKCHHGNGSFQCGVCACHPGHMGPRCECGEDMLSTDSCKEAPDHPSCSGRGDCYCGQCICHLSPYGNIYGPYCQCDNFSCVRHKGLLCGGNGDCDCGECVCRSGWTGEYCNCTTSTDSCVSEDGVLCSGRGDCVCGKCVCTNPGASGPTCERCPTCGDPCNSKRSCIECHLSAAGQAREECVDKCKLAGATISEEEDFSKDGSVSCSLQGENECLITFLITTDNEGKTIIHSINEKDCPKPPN
row,Structure (SMILES),IC50 [nM]
1,"COCCN(CCCCc1ccc2c(n1)NCCC2)CC[C@H](Nc1ncnc2ncccc12)C(=O)O [Compound 11, (S)-4-((2-methoxyethyl) (4-(5,6,7,8-tetrahydro-1,8-naphthyridin-2-yl)butyl)amino)-2-(pyrido[2,3-d]pyrimidin-4-ylamino) butanoic Acid]",< 50
2,"O=C(O)[C@H](CCN(CCCCc1ccc2c(n1)NCCC2)CCC(F)F)Nc1ncnc2ccccc12 [Compound 29, (S)-4-((3,3-difluoropropyl) (4-(5,6,7,8-tetrahydro-1,8-naphthyridin-2-yl)butyl)amino)-2-(quinazolin-4-ylamino) butanoic Acid]",< 50
3,"CO[C@H](C)CN(CCCCc1ccc2c(n1)NCCC2)CC[C@H](Nc1cc(-n2cccn2)ncn1)C(=O)O [Compound 77, (S)-2-((6-(1H-pyrazol-1-yl)pyrimidin-4-yl)amino)-4-(((R)-2-methoxypropyl) (4-(5,6,7,8-tetrahydro-1,8-naphthyridin-2-yl)butyl)amino) butanoic Acid]",< 50
4,"Cn1ncc2c(N[C@@H](CCN(CCCF)CCCCc3ccc4c(n3)NCCC4)C(=O)O)ncnc21 [Compound 136, (S)-4-((3-fluoropropyl) (4-(5,6,7,8-tetrahydro-1,8-naphthyridin-2-yl)butyl)amino)-2-((1-methyl-1H-pyrazolo[3,4-d]pyrimidin-4-yl)amino) butanoic Acid]",< 50
5,"COCCN(CCCCc1ccc2c(n1)NCCC2)CC[C@H](Nc1ncnc2cccnc12)C(=O)O [Compound 16, (S)-4-((2-methoxyethyl) (4-(5,6,7,8-tetrahydro-1,8-naphthyridin-2-yl)butyl)amino)-2-(pyrido[3,2-d]pyrimidin-4-ylamino) butanoic Acid]",< 50
6,"COCCN(CCCCc1ccc2c(n1)NCCC2)CC[C@H](Nc1nccc2ccccc12)C(=O)O [Compound 34, (S)-2-(isoquinolin-1-ylamino)-4-((2-methoxyethyl) (4-(5,6,7,8-tetrahydro-1,8-naphthyridin-2-yl)butyl)amino) butanoic Acid]",> 1000
7,"O=C(O)[C@H](CCN(CCCCc1ccc2c(n1)NCCC2)CCOc1cncc(F)c1)Nc1ncnc2cccnc12 [Compound 60, (S)-4-((2-((5-fluoropyridin-3-yl)oxy)ethyl) (4-(5,6,7,8-tetrahydro-1,8-naphthyridin-2-yl)butyl)amino)-2-(pyrido[3,2-d]pyrimidin-4-ylamino) butanoic Acid]",< 50
8,"COCCN(CCCCc1ccc2c(n1)NCCC2)CC[C@H](Nc1nc(C)nc2ccccc12)C(=O)O [Compound 10, (S)-4-((2-methoxyethyl) (4-(5,6,7,8-tetrahydro-1,8-naphthyridin-2-yl)butyl)amino)-2-((2-methylquinazolin-4-yl)amino) butanoic Acid]",< 50
9,"O=C(O)[C@H](CCN(CCCCc1ccc2c(n1)NCCC2)CCC(F)F)Nc1ncc(C(F)(F)F)cn1 [Compound 132, (S)-4-((3,3-difluoropropyl) (4-(5,6,7,8-tetrahydro-1,8-naphthyridin-2-yl)butyl)amino)-2-((5-(trifluoromethyl)pyrimidin-2-yl)amino) butanoic Acid]",50 to 250

# Second part, the compound after the results:
row,IC50 [nM],Structure (SMILES)
1,< 50,"COc1ccc2c(N[C@@H](CCN(CCCF)CCCCc3ccc4c(n3)NCCC4)C(=O)O)ncnc2c1 [Compound 41, (S)-4-((3-fluoropropyl) (4-(5,6,7,8-tetrahydro-1,8-naphthyridin-2-yl)butyl)amino)-2-((7-methoxyquinazolin-4-yl)amino) butanoic Acid]"
2,< 50,"CO[C@H](C)CN(CCCCc1ccc2c(n1)NCCC2)CC[C@H](Nc1nc(-c2cccnc2)nc2ccccc12)C(=O)O [Compound 100, (S)-4-(((R)-2-methoxypropyl) (4-(5,6,7,8-tetrahydro-1,8-naphthyridin-2-yl)butyl)amino)-2-((2-(pyridin-3-yl)quinazolin-4-yl)amino) butanoic Acid]"
3,< 50,"Cc1ccc(OCCN(CCCCc2ccc3c(n2)NCCC3)CC[C@H](Nc2ncnc3ccccc23)C(=O)O)cn1 [Compound 59, (S)-4-((2-((6-methylpyridin-3-yl)oxy)ethyl) (4-(5,6,7,8-tetrahydro-1,8-naphthyridin-2-yl)butyl)amino)-2-(quinazolin-4-ylamino) butanoic Acid]"
4,< 50,"Cn1ncc2c(N[C@@H](CCN(CCCCc3ccc4c(n3)NCCC4)CCOc3ccc(F)cc3)C(=O)O)ncnc21 [Compound 123, (S)-4-((2-(4-fluorophenoxy)ethyl) (4-(5,6,7,8-tetrahydro-1,8-naphthyridin-2-yl)butyl)amino)-2-((1-methyl-1H-pyrazolo[3,4-d]pyrimidin-4-yl)amino) butanoic Acid]"
5,< 50,"O=C(O)[C@H](CCN(CCCCc1ccc2c(n1)NCCC2)CCOCC(F)F)Nc1ncnc2ccccc12 [Compound 50, (S)-4-((2-(2,2-difluoroethoxy)ethyl) (4-(5,6,7,8-tetrahydro-1,8-naphthyridin-2-yl)butyl)amino)-2-(quinazolin-4-ylamino) butanoic Acid]"
6,< 50,"O=C(O)[C@H](CCN(CCCCc1ccc2c(n1)NCCC2)CC(CO)CO)Nc1ncnc2ccccc12 [Compound 130, (S)-4-((3-hydroxy-2-(hydroxymethyl)propyl) (4-(5,6,7,8-tetrahydro-1,8-naphthyridin-2-yl)butyl)amino)-2-(quinazolin-4-ylamino) butanoic Acid]"
7,< 50,"CO[C@H](C)CN(CCCCc1ccc2c(n1)NCCC2)CC[C@H](Nc1ncc(C#N)cn1)C(=O)O [Compound 68, (S)-2-((5-cyanopyrimidin-2-yl)amino)-4-(((R)-2-methoxypropyl) (4-(5,6,7,8-tetrahydro-1,8-naphthyridin-2-yl)butyl)amino) butanoic Acid]"
8,< 50,"CO[C@H](C)CN(CCCCc1ccc2c(n1)NCCC2)CC[C@H](Nc1ncnc2[nH]ncc12)C(=O)O [Compound 71, (S)-2-((1H-pyrazolo[3,4-d]pyrimidin-4-yl)amino)-4-(((R)-2-methoxypropyl) (4-(5,6,7,8-tetrahydro-1,8-naphthyridin-2-yl)butyl)amino) butanoic Acid]"
9,< 50,"CO[C@H](C)CN(CCCCc1ccc2c(n1)NCCC2)CC[C@H](Nc1ccncn1)C(=O)O [Compound 106, (S)-4-(((R)-2-methoxypropyl) (4-(5,6,7,8-tetrahydro-1,8-naphthyridin-2-yl)butyl)amino)-2-(pyrimidin-4-ylamino) butanoic Acid]"
10,< 50,"O=C(O)[C@H](CCN(CCCCc1ccc2c(n1)NCCC2)CCOCC(F)(F)F)Nc1ncnc2ccccc12 [Compound 39, (S)-2-(quinazolin-4-ylamino)-4-((4-(5,6,7,8-tetrahydro-1,8-naphthyridin-2-yl)butyl) (2-(2,2,2-trifluoroethoxy)ethyl)amino) butanoic Acid]"
11,< 50,"CO[C@H](C)CN(CCCCc1ccc2c(n1)NCCC2)CC[C@H](Nc1ncnc2cn[nH]c12)C(=O)O [Compound 79, (S)-2-((1H-pyrazolo[4,3-d]pyrimidin-7-yl)amino)-4-(((R)-2-methoxypropyl) (4-(5,6,7,8-tetrahydro-1,8-naphthyridin-2-yl)butyl)amino) butanoic Acid]"
12,< 50,"O=C(O)[C@H](CCN(CCCCc1ccc2c(n1)NCCC2)CCOc1ccccn1)Nc1ncnc2c(Cl)cccc12 [Compound 48, (S)-2-((8-chloroquinazolin-4-yl)amino)-4-((2-(pyridin-2-yloxy)ethyl) (4-(5,6,7,8-tetrahydro-1,8-naphthyridin-2-yl)butyl)amino) butanoic Acid]"
